From patent US20140364431A1, “Quinoline and cinnoline derivatives and their applications” (Shenyang Pharmaceutical University, priority 2011, published 2014)
pIC50: −log10 of the molar value. ≈ marks a conversion by molar mass, not a printed value. Counter-ions that a name gives are not always drawn. Like-named read-outs stand apart in the source and are kept apart here.

What was measured:
[1] = test system: U87MG (Human malignant glioblastoma cells); experiment: In vitro anti-tumor cellular activity (MTT), U87MG; format: cell-based; details: Homo sapiens, U-87 MG, read-out: U87MG IC50
[2] = test system: HT-29 (colon cancer cell); experiment: In vitro anti-tumor cellular activity (MTT), HT-29; format: cell-based, human; details: Homo sapiens, read-out: HT-29 IC50
[3] = test system: MKN-45 (human gastric carcinoma cell); experiment: In vitro anti-tumor cellular activity (MTT), MKN-45; format: cell-based; details: Homo sapiens, read-out: MKN-45 IC50
[4] = test system: SMMC-7721 (hepatoma cell); experiment: In vitro anti-tumor cellular activity (MTT), SMMC-7721; format: cell-based, human; details: Homo sapiens, read-out: SMMC-7721 IC50
[5] = molecular target: T1, c-Met (His-tagged recombinant human Met (Amino acids 974-ends)) (Homo sapiens, UniProt P08581); experiment: c-Met kinase assay (ELISA); format: biochemical; details: 50 pM c-Met, 5 μM ATP, 20 min
T1 construct: His-tagged recombinant human Met (Amino acids 974-ends); His; host or cells: baculovirus expression
Procedure: c-Met kinase activity was measured with an ELISA reader.
The reaction mixture was removed by washing with 0.2 μg/mL conjugated horseradish peroxidase (HRP) monoclonal antibody specific for phosphotyrosine (PY20) detecting phosphorylation of the substrate polymer. 1M phosphoric acid was added to terminate the color, the chromogenic substrate (TMB) was tested by spectrophotometry at 450 nm.

[6] = test system: H460 (human lung cancer cell); experiment: In vitro anti-tumor cellular activity (MTT), H460; format: cell-based; details: Homo sapiens, read-out: H460 IC50

T1 sequence (P08581 974-1390 limits assumed): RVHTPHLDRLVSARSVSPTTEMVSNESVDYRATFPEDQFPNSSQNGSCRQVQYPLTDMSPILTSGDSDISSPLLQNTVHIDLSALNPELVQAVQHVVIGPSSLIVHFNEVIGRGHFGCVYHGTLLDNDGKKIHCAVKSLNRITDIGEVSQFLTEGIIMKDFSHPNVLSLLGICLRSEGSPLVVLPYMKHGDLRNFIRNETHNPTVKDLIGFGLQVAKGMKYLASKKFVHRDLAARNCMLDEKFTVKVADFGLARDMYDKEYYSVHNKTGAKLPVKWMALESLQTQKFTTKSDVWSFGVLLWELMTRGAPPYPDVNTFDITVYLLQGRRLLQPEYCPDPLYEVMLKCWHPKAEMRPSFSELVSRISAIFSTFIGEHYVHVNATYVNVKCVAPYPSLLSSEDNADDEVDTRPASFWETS

Row | Structure (SMILES) | IC50 ([1]; MTT, 72 hours, U87MG) | IC50 ([2]; MTT, 72 hours, HT-29) | IC50 ([3]; MTT, 72 hours, MKN-45) | IC50 ([4]; MTT, 72 hours, SMMC-7721) | pIC50 [5] | IC50 ([6]; NCI-H460, MTT, 72 hours, H460) | IC50 ([1]; 72 h) | IC50 ([2]; HT-29, 72 h) | IC50 ([3]; MKN-45, 72 h) | IC50 ([4]; SMMC-7721, 72 h) | IC50 ([6]; NCI-H460, 72 h)
1 | COc1cc2c(Oc3ccc(NC(=O)c4nn(-c5cc(C(F)(F)F)ccc5Cl)c5ccccc5c4=O)cc3F)ccnc2cc1OCCCN1CCCCC1 [Example 20, N-(3-fluoro-4-((6-methoxy-7-(3-(piperidin-1-yl)propoxy)quinolin-4-yl)oxy)phenyl)-1-(2-chloro-5-(trifluoromethyl)phenyl)-4-oxo-1,4-dihydrocinnoline-3-carboxamide] | 1.3 µg/mL (≈ 1.67 µM) | 0.7 µg/mL (≈ 0.902 µM) | 1.6 µg/mL (≈ 2.06 µM) | 0.5 µg/mL (≈ 0.644 µM) | 5.71 | 1.1 µg/mL (≈ 1.42 µM) | – | – | – | – | –
2 | COc1cc2c(Oc3ccc(NC(=O)c4nn(-c5cc(C(F)(F)F)ccc5Cl)c5ccccc5c4=O)cc3F)ccnc2cc1OCCCN1CCC(C)CC1 [Example 21, N-(3-fluoro-4-((6-methoxy-7-(3-(4-methylpiperidin-1-yl)propoxy)quinolin-4-yl)oxy)phenyl)-1-(2-chloro-5-(trifluoromethyl)phenyl)-4-oxo-1,4-dihydrocinnoline-3-carboxamide] | 0.7 µg/mL (≈ 0.886 µM) | 0.8 µg/mL (≈ 1.01 µM) | 0.6 µg/mL (≈ 0.759 µM) | 1.4 µg/mL (≈ 1.77 µM) | 5.94 | 0.8 µg/mL (≈ 1.01 µM) | – | – | – | – | –
3 | COc1cc2c(Oc3ccc(NC(=O)c4nn(-c5cc(C(F)(F)F)ccc5Cl)c5ccccc5c4=O)cc3F)ccnc2cc1OCCCN1CCN(C)CC1 [Example 23, N-(3-fluoro-4-((6-methoxy-7-(3-(4-methylpiperazin-1-yl)propoxy)quinolin-4-yl)oxy)phenyl)-1-(2-chloro-5-(trifluoromethyl)phenyl)-4-oxo-1,4-dihydrocinnoline-3-carboxamide] | 1.3 µg/mL (≈ 1.64 µM) | 0.7 µg/mL (≈ 0.885 µM) | 0.9 µg/mL (≈ 1.14 µM) | 1.4 µg/mL (≈ 1.77 µM) | 6.39 | 1 µg/mL (≈ 1.26 µM) | – | – | – | – | –
4 | COc1cc2c(Oc3ccc(NC(=O)c4nn(-c5ccc(C)cc5C)c5ccccc5c4=O)cc3F)ccnc2cc1OCCCN1CCC(C)CC1 [Example 24, N-(3-fluoro-4-((6-methoxy-7-(3-(4-methylpiperidin-1-yl)propoxy)quinolin-4-yl)oxy)phenyl)-1-(2,4-dimethylphenyl)-4-oxo-1,4-dihydrocinnoline-3-carboxamide] | 2.8 µg/mL (≈ 3.91 µM) | 1.4 µg/mL (≈ 1.96 µM) | 0.8 µg/mL (≈ 1.12 µM) | 0.86 µg/mL (≈ 1.2 µM) | 5.90 | 1.1 µg/mL (≈ 1.54 µM) | – | – | – | – | –
5 | COc1cc2c(Oc3ccc(NC(=O)c4nn(-c5ccc(C)cc5C)c5ccccc5c4=O)cc3F)ccnc2cc1OCCCN1CCN(C)CC1 [Example 26, N-(3-fluoro-4-((6-methoxy-7-(3-(4-methylpiperazin-1-yl)propoxy)quinolin-4-yl)oxy)phenyl)-1-(2,4-dimethylphenyl)-4-oxo-1,4-dihydrocimloline-3-carboxamide] | 1.8 µg/mL (≈ 2.51 µM) | 1.4 µg/mL (≈ 1.95 µM) | 0.7 µg/mL (≈ 0.977 µM) | 1.6 µg/mL (≈ 2.23 µM) | 6.38 | 0.8 µg/mL (≈ 1.12 µM) | – | – | – | – | –
6 | COc1cc2c(Oc3ccc(NC(=O)c4nn(-c5ccc(Cl)cc5Cl)c5ccccc5c4=O)cc3F)ccnc2cc1OCCCN1CCC(C)CC1 [Example 28, N-(3-fluoro-4-((6-methoxy-7-(3-(4-methylpiperidin-1-yl)propoxy)quinolin-4-yl)oxy)phenyl)-1-(2,4-dichlorophenyl)-4-oxo-1,4-dihydrocinnoline-3-carboxamide] | – | – | – | – | 5.76 | – | 1.6 µg/mL (≈ 2.11 µM) | 0.9 µg/mL (≈ 1.19 µM) | 1.8 µg/mL (≈ 2.38 µM) | 1.3 µg/mL (≈ 1.72 µM) | 2.3 µg/mL (≈ 3.04 µM)
7 | COc1cc2c(Oc3ccc(NC(=O)c4nn(-c5c(Cl)cccc5Cl)c5ccccc5c4=O)cc3F)ccnc2cc1OCCCN1CCN(C)CC1 [Example 32, N-(3-fluoro-4-((6-methoxy-7-(3-(4-methylpiperazin-1-yl)propoxy)quinolin-4-yl)oxy)phenyl)-1-(2,6-dichlorophenyl)-4-oxo-1,4-dihydrocinnoline-3-carboxamide] | – | – | – | – | 6.88 | – | 0.65 µg/mL (≈ 0.858 µM) | 0.77 µg/mL (≈ 1.02 µM) | 1.2 µg/mL (≈ 1.58 µM) | 0.66 µg/mL (≈ 0.871 µM) | 0.7 µg/mL (≈ 0.924 µM)
8 | COc1cc2c(Oc3ccc(NC(=O)c4nn(-c5ccccc5Br)c5ccccc5c4=O)cc3F)ccnc2cc1OCCCN1CCN(C)CC1 [Example 35, N-(3-fluoro-4-((6-methoxy-7-(3-(4-methylpiperazin-1-yl)propoxy)quinolin-4-yl)oxy)phenyl)-1-(2-bromophenyl)-4-oxo-1,4-dihydrocinnoline-3-carboxamide] | – | – | – | – | 5.84 | – | 1.3 µg/mL (≈ 1.69 µM) | 0.9 µg/mL (≈ 1.17 µM) | 2.1 µg/mL (≈ 2.74 µM) | 1.5 µg/mL (≈ 1.95 µM) | 2.5 µg/mL (≈ 3.26 µM)
9 | COc1cc2c(Oc3ccc(NC(=O)c4nn(-c5ccc(F)cc5)c5ccccc5c4=O)cc3F)ccnc2cc1OCCCN1CCOCC1 [Example 36, N-(3-fluoro-4-((6-methoxy-7-(3-(morpholin-4-yl)propoxy)quinolin-4-yl)oxy)phenyl)-1-(4-fluorophenyl)-4-oxo-1,4-dihydrocinnoline-3-carboxamide] | 1.5 µg/mL (≈ 2.16 µM) | 0.7 µg/mL (≈ 1.01 µM) | 1.3 µg/mL (≈ 1.87 µM) | 0.87 µg/mL (≈ 1.25 µM) | 6.02 | 1.1 µg/mL (≈ 1.59 µM) | – | – | – | – | –
10 | COc1cc2c(Oc3ccc(NC(=O)c4nn(-c5ccccc5OC(F)(F)F)c5ccccc5c4=O)cc3F)ccnc2cc1OCCCN1CCCCC1 [Example 38, N-(3-fluoro-4-((6-methoxy-7-(3-(piperidin-1-yl)propoxy)quinolin-4-yl)oxy)phenyl)-1-(2-(trifluoromethoxy)phenyl)-4-oxo-1,4-dihydrocinnoline-3-carboxamide] | 1.1 µg/mL (≈ 1.45 µM) | 1.8 µg/mL (≈ 2.38 µM) | 2.1 µg/mL (≈ 2.77 µM) | 0.98 µg/mL (≈ 1.29 µM) | 5.84 | 1.6 µg/mL (≈ 2.11 µM) | – | – | – | – | –
11 | COc1cc2c(Oc3ccc(NC(=O)c4nn(-c5ccc(Br)cc5)c5ccccc5c4=O)cc3F)ccnc2cc1OCCCN1CCOCC1 [Example 39, N-(3-fluoro-4-((6-methoxy-7-(3-(morpholin-4-yl)propoxy)quinolin-4-yl)oxy)phenyl)-1-(4-bromophenyl)-4-oxo-1,4-dihydrocinnoline-3-carboxamide] | – | – | – | – | 5.88 | – | 1.8 µg/mL (≈ 2.39 µM) | 0.87 µg/mL (≈ 1.15 µM) | 1.4 µg/mL (≈ 1.86 µM) | 2.1 µg/mL (≈ 2.78 µM) | 2.3 µg/mL (≈ 3.05 µM)
12 | COc1cc2c(Oc3ccc(NC(=O)c4nn(-c5ccc(Cl)cc5Cl)c5ccccc5c4=O)cc3F)ccnc2cc1OCCCN1CCN(C)CC1 [Example 43, N-(3-fluoro-4-((6-methoxy-7-(3-(4-methylpiperazin-1-yl)propoxy)quinolin-4-yl)oxy)phenyl)-1-(2,4-dichlorophenyl)-4-oxo-1,4-dihydrocinnoline-3-carboxamide] | – | – | – | – | 6.03 | – | 0.77 µg/mL (≈ 1.02 µM) | 1.2 µg/mL (≈ 1.58 µM) | 0.45 µg/mL (≈ 0.594 µM) | 1.8 µg/mL (≈ 2.38 µM) | 0.53 µg/mL (≈ 0.7 µM)
13 | COc1cc2c(Oc3ccc(NC(=O)c4cn(-c5ccc(F)cc5)c5ccccc5c4=O)cc3F)ccnc2cc1OCCCN1CCN(C)CC1 [Example 46, N-(3-fluoro-4-((6-methoxy-7-(3-(4-methyl-piperazin-1-yl)propoxy)quinolin-4-yl)oxy)phenyl)-4-oxo-1-(4-fluorophenyl)-1,4-dihydroquinoline-3-carboxamide dihydrochloride] | 0.72 µg/mL | 1.5 µg/mL | 0.67 µg/mL | 1.3 µg/mL | 5.95 | 0.98 µg/mL | – | – | – | – | –
14 | COc1cc2c(Oc3ccc(NC(=O)c4cn(-c5ccccc5F)c5ccccc5c4=O)cc3F)ccnc2cc1OCCCN1CCC(C)CC1 [Example 47, N-(3-fluoro-4-((6-methoxy-7-(3-(4-methylpiperidin-1-yl)propoxy)quinolin-4-yl)oxy)phenyl)-1-(2-fluorophenyl)-4-oxo-1,4-dihydroquinoline-3-carboxamide] | 0.49 µg/mL (≈ 0.695 µM) | 0.57 µg/mL (≈ 0.809 µM) | 0.34 µg/mL (≈ 0.482 µM) | 1.1 µg/mL (≈ 1.56 µM) | 6.25 | 0.54 µg/mL (≈ 0.766 µM) | – | – | – | – | –
15 | COc1cc2c(Oc3ccc(NC(=O)c4cn(-c5ccccc5C(F)(F)F)c5ccccc5c4=O)cc3F)ccnc2cc1OCCCN1CCOCC1.Cl.Cl [Example 48, N-(3-fluoro-4-((6-methoxy-7-(3-(morpholin-4-yl)propoxy)quinolin-4-yl)oxy)phenyl)-4-oxo-1-(2-(trifluoromethyl)phenyl)-1,4-dihydroquinoline-3-carboxamide dihydrochloride] | 0.88 µg/mL | 0.65 µg/mL | 1.1 µg/mL | 0.56 µg/mL | 5.87 | 0.7 µg/mL | – | – | – | – | –
16 | COc1cc2c(Oc3ccc(NC(=O)c4cn(-c5ccccc5F)c5ccccc5c4=O)cc3F)ccnc2cc1OCCCN1CCCCC1 [Example 50, N-(3-fluoro-4-((6-methoxy-7-(3-(piperidin-1-yl)propoxy)quinolin-4-yl)oxy)phenyl)-1-(2-fluorophenyl)-4-oxo-1,4-dihydroquinoline-3-carboxamide] | 0.35 µg/mL (≈ 0.507 µM) | 0.38 µg/mL (≈ 0.55 µM) | 0.45 µg/mL (≈ 0.651 µM) | 0.87 µg/mL (≈ 1.26 µM) | 6.06 | 0.58 µg/mL (≈ 0.84 µM) | – | – | – | – | –
17 | COc1cc2c(Oc3ccc(NC(=O)c4cn(-c5ccccc5F)c5ccccc5c4=O)cc3F)ccnc2cc1OCCCN1CCCC1 [Example 51, N-(3-fluoro-4-((6-methoxy-7-(3-(pyrrolidin-1-yl)propoxy)quinolin-4-yl)oxy)phenyl)-1-(2-fluorophenyl)-4-oxo-1,4-dihydroquinoline-3-carboxamide] | 0.28 µg/mL (≈ 0.414 µM) | 0.41 µg/mL (≈ 0.606 µM) | 0.24 µg/mL (≈ 0.355 µM) | 0.53 µg/mL (≈ 0.783 µM) | 6.53 | 0.58 µg/mL (≈ 0.857 µM) | – | – | – | – | –
